Measurements: ChEMBL document CHEMBL1125558 (J Med Chem, 1992)

Experiments:
[1] = molecular target: Sodium-dependent dopamine transporter (Rattus norvegicus, UniProt P23977); test: Compound was evaluated for its ability to displace [3H]mazindol binding from rat striatal membranes
[2] = species: Rattus norvegicus; test: Compound was evaluated for its ability to inhibit high-affinity uptake of [3H]dopamine into striatal nerve endings of rat; type: functional
[3] = tested on: Rattus norvegicus; test: Percent response at dose 0.4 mg/kg evaluated by substitution tests in trained rats(post injection interval 240 min); type: functional
[4] = tested on: Rattus norvegicus; test: Number of animals(n) completing 20 responses on either lever out of the number of animals tested (N) at dose 0.1 mg/kg evaluated by dose-response tests in trained rats(post injection interval 240 min); n/N=7/7; type: functional
[5] = species: Rattus norvegicus; test: Result of substitution tests in trained rats and expressed as effective dose(post injection interval 240 min); type: functional; details: 4 h
[6] = tested on: Rattus norvegicus; test: Percent response at dose 0.05 mg/kg evaluated by substitution tests in trained rats(post injection interval 120 min); type: functional
[7] = tested on: Rattus norvegicus; test: Mean responses per minute at dose 0.4 mg/kg evaluated by substitution tests in trained rats(post injection interval 240 min); type: functional
[8] = tested on: Rattus norvegicus; test: Percent response at dose 0.8 mg/kg evaluated by substitution tests in trained rats(post injection interval 30 min); type: functional
[9] = tested on: Rattus norvegicus; test: Mean responses per minute at dose 0.8 mg/kg evaluated by substitution tests in trained rats(post injection interval 120 min); type: functional
[10] = tested on: Rattus norvegicus; test: Percent response at dose 0.4 mg/kg evaluated by substitution tests in trained rats(post injection interval 30 min); type: functional
[11] = tested on: Rattus norvegicus; test: Mean responses per minute at dose 0.05 mg/kg evaluated by substitution tests in trained rats(post injection interval 30 min); type: functional
[12] = tested on: Rattus norvegicus; test: Mean responses per minute at dose 0.1 mg/kg evaluated by substitution tests in trained rats(post injection interval 30 min); type: functional
[13] = tested on: Rattus norvegicus; test: Number of animals(n) completing 20 responses on either lever out of the number of animals tested (N) at dose 0.1 mg/kg evaluated by dose-response tests in trained rats(post injection interval 30 min); n/N=7/7; type: functional
[14] = tested on: Rattus norvegicus; test: Percent response at dose 0.1 mg/kg evaluated by substitution tests in trained rats(post injection interval 240 min); type: functional
[15] = tested on: Rattus norvegicus; test: Number of animals(n) completing 20 responses on either lever out of the number of animals tested (N) at dose 0.4 mg/kg evaluated by dose-response tests in trained rats(post injection interval 30 min); n/N=7/7; type: functional
[16] = tested on: Rattus norvegicus; test: Percent response at dose 0.2 mg/kg evaluated by substitution tests in trained rats(post injection interval 240 min); type: functional
[17] = tested on: Rattus norvegicus; test: Mean responses per minute at dose 0.8 mg/kg evaluated by substitution tests in trained rats(post injection interval 240 min); type: functional
[18] = tested on: Rattus norvegicus; test: Percent response at dose 0.4 mg/kg evaluated by substitution tests in trained rats(post injection interval 120 min); type: functional
[19] = tested on: Rattus norvegicus; test: Number of animals(n) completing 20 responses on either lever out of the number of animals tested (N) at dose 0.4 mg/kg evaluated by dose-response tests in trained rats(post injection interval 120 min); n/N=3/5; type: functional
[20] = tested on: Rattus norvegicus; test: Number of animals(n) completing 20 responses on either lever out of the number of animals tested (N) at dose 0.05 mg/kg evaluated by dose-response tests in trained rats(post injection interval 240 min); n/N=7/7; type: functional
[21] = tested on: Rattus norvegicus; test: Percent response at dose 0.2 mg/kg evaluated by substitution tests in trained rats(post injection interval 120 min); type: functional
[22] = tested on: Rattus norvegicus; test: Percent response at dose 0.1 mg/kg evaluated by substitution tests in trained rats(post injection interval 120 min); type: functional
[23] = tested on: Rattus norvegicus; test: Percent response at dose 0.1 mg/kg evaluated by substitution tests in trained rats(post injection interval 30 min); type: functional
[24] = tested on: Rattus norvegicus; test: Mean responses per minute at dose 0.4 mg/kg evaluated by substitution tests in trained rats(post injection interval 30 min); type: functional
[25] = tested on: Rattus norvegicus; test: Mean responses per minute at dose 0.2 mg/kg evaluated by substitution tests in trained rats(post injection interval 30 min); type: functional
[26] = tested on: Rattus norvegicus; test: Number of animals(n) completing 20 responses on either lever out of the number of animals tested (N) at dose 0.2 mg/kg evaluated by dose-response tests in trained rats(post injection interval 240 min); n/N=7/7; type: functional
[27] = tested on: Rattus norvegicus; test: Number of animals(n) completing 20 responses on either lever out of the number of animals tested (N) at dose 0.4 mg/kg evaluated by dose-response tests in trained rats(post injection interval 240 min); n/N=4/5; type: functional
[28] = species: Rattus norvegicus; test: Result of substitution tests in trained rats and expressed as effective dose(post injection interval 30 min); type: functional; details: 0.5 h
[29] = tested on: Rattus norvegicus; test: Mean responses per minute at dose 0.05 mg/kg evaluated by substitution tests in trained rats(post injection interval 240 min); type: functional
[30] = tested on: Rattus norvegicus; test: Number of animals(n) completing 20 responses on either lever out of the number of animals tested (N) at dose 0.05 mg/kg evaluated by dose-response tests in trained rats(post injection interval 120 min); n/N=7/7; type: functional
[31] = tested on: Rattus norvegicus; test: Number of animals(n) completing 20 responses on either lever out of the number of animals tested (N) at dose 0.05 mg/kg evaluated by dose-response tests in trained rats(post injection interval 30 min); n/N=7/7; type: functional
[32] = tested on: Rattus norvegicus; test: Number of animals(n) completing 20 responses on either lever out of the number of animals tested (N) at dose 0.8 mg/kg evaluated by dose-response tests in trained rats(post injection interval 120 min); n/N=1/7; type: functional
[33] = tested on: Rattus norvegicus; test: Number of animals(n) completing 20 responses on either lever out of the number of animals tested (N) at dose 0.8 mg/kg evaluated by dose-response tests in trained rats(post injection interval 30 min); n/N=7/7; type: functional
[34] = tested on: Rattus norvegicus; test: Mean responses per minute at dose 0.1 mg/kg evaluated by substitution tests in trained rats(post injection interval 240 min); type: functional
[35] = tested on: Rattus norvegicus; test: Percent response at dose 0.2 mg/kg evaluated by substitution tests in trained rats(post injection interval 30 min); type: functional
[36] = tested on: Rattus norvegicus; test: Mean responses per minute at dose 0.1 mg/kg evaluated by substitution tests in trained rats(post injection interval 120 min); type: functional
[37] = tested on: Rattus norvegicus; test: Mean responses per minute at dose 0.05 mg/kg evaluated by substitution tests in trained rats(post injection interval 120 min); type: functional
[38] = tested on: Rattus norvegicus; test: Percent response at dose 0.8 mg/kg evaluated by substitution tests in trained rats(post injection interval 240 min); type: functional
[39] = tested on: Rattus norvegicus; test: Number of animals(n) completing 20 responses on either lever out of the number of animals tested (N) at dose 0.2 mg/kg evaluated by dose-response tests in trained rats(post injection interval 30 min); n/N=7/7; type: functional
[40] = tested on: Rattus norvegicus; test: Percent response at dose 0.05 mg/kg evaluated by substitution tests in trained rats(post injection interval 240 min); type: functional
[41] = species: Rattus norvegicus; test: Result of substitution tests in trained rats and expressed as effective dose(post injection interval 120 min); type: functional; details: 2 h
[42] = tested on: Rattus norvegicus; test: Mean responses per minute at dose 0.2 mg/kg evaluated by substitution tests in trained rats(post injection interval 240 min); type: functional
[43] = tested on: Rattus norvegicus; test: Mean responses per minute at dose 0.2 mg/kg evaluated by substitution tests in trained rats(post injection interval 120 min); type: functional
[44] = tested on: Rattus norvegicus; test: Number of animals(n) completing 20 responses on either lever out of the number of animals tested (N) at dose 0.1 mg/kg evaluated by dose-response tests in trained rats(post injection interval 120 min); n/N=7/7; type: functional
[45] = tested on: Rattus norvegicus; test: Percent response at dose 0.8 mg/kg evaluated by substitution tests in trained rats(post injection interval 120 min); type: functional
[46] = tested on: Rattus norvegicus; test: Percent response at dose 0.05 mg/kg evaluated by substitution tests in trained rats(post injection interval 30 min); type: functional
[47] = tested on: Rattus norvegicus; test: Mean responses per minute at dose 0.4 mg/kg evaluated by substitution tests in trained rats(post injection interval 120 min); type: functional
[48] = tested on: Rattus norvegicus; test: Number of animals(n) completing 20 responses on either lever out of the number of animals tested (N) at dose 0.8 mg/kg evaluated by dose-response tests in trained rats(post injection interval 240 min); n/N=3/7; type: functional
[49] = tested on: Rattus norvegicus; test: Mean responses per minute at dose 0.8 mg/kg evaluated by substitution tests in trained rats(post injection interval 30 min); type: functional
[50] = tested on: Rattus norvegicus; test: Number of animals(n) completing 20 responses on either lever out of the number of animals tested (N) at dose 0.2 mg/kg evaluated by dose-response tests in trained rats(post injection interval 120 min); n/N=7/7; type: functional
[51] = species: Rattus norvegicus; test: Compound was evaluated for its ability to displace [3H]-mazindol binding from rat striatal membranes

Sequence of Sodium-dependent dopamine transporter (P23977 whole entry): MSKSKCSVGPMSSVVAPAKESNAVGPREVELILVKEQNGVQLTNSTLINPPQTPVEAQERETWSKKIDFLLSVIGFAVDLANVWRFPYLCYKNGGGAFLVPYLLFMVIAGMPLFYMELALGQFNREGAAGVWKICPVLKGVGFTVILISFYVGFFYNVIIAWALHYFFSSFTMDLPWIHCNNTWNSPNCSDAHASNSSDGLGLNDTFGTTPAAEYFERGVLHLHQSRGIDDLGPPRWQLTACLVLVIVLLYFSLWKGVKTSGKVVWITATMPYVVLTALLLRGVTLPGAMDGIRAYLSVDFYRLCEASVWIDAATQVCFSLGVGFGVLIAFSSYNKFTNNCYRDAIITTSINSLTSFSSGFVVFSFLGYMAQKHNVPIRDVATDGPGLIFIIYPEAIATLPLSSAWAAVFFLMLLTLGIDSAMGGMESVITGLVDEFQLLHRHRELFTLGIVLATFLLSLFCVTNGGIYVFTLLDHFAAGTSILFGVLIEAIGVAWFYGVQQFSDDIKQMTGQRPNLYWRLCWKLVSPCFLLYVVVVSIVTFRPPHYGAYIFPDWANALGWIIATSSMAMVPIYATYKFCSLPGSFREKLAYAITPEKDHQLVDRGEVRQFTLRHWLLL

## C=C[C@@H]1C2CC[C@H](C[C@@H]1OC(=O)c1ccccc1)N2C
[1]
  IC50: 1730 nM
[2]
  IC50: 1120 nM

## CN1C2CC[C@@H]1C[C@H](OC(=O)c1ccccc1)[C@@H]2/C=C/Cl
[1]
  IC50: 222 nM
[2]
  IC50: 368 nM

## COC(=O)C1C2CC[C@H](C[C@@H]1c1ccc(Cl)cc1)N2C (stereo partly specified)
[2]
  IC50: 3.2 nM

## C=C[C@@H]1C2CCC(C[C@@H]1c1ccc(Cl)cc1)N2C (stereo partly specified)
[3]
  Drug response: 91%
[4]
  No. resp animals / Total: 7 / 7
[5]
  ED50: 0.09 mg/kg
[6]
  Drug response: 22%
[7]
  Rate response: 23.6 min⁻¹
[8]
  Drug response: 93%
[9]
  Rate response: 7.7 min⁻¹
[10]
  Drug response: 99%
[11]
  Rate response: 29.6 min⁻¹
[12]
  Rate response: 37.1 min⁻¹
[13]
  No. resp animals / Total: 4 / 5
[14]
  Drug response: 61%
[15]
  No. resp animals / Total: 7 / 7
[16]
  Drug response: 98%
[17]
  Rate response: 39.1 min⁻¹
[18]
  Drug response: 72%
[19]
  No. resp animals / Total: 7 / 7
[20]
  No. resp animals / Total: 7 / 7
[21]
  Drug response: 100%
[2]
  IC50: 2.8 nM
[22]
  Drug response: 75%
[23]
  Drug response: 40%
[24]
  Rate response: 52.8 min⁻¹
[25]
  Rate response: 26.2 min⁻¹
[26]
  No. resp animals / Total: 7 / 7
[27]
  No. resp animals / Total: 1 / 7
[28]
  ED50: 0.11 mg/kg
[29]
  Rate response: 28.3 min⁻¹
[30]
  No. resp animals / Total: 7 / 7
[31]
  No. resp animals / Total: 7 / 7
[32]
  No. resp animals / Total: 5 / 5
[33]
  No. resp animals / Total: 7 / 7
[34]
  Rate response: 23.5 min⁻¹
[35]
  Drug response: 83%
[36]
  Rate response: 25.7 min⁻¹
[37]
  Rate response: 18.4 min⁻¹
[38]
  Drug response: 100%
[39]
  No. resp animals / Total: 7 / 7
[40]
  Drug response: 14%
[41]
  ED50: 0.08 mg/kg
[42]
  Rate response: 47.9 min⁻¹
[43]
  Rate response: 46.8 min⁻¹
[44]
  No. resp animals / Total: 7 / 7
[45]
  Drug response: 95%
[46]
  Drug response: 19%
[47]
  Rate response: 24.9 min⁻¹
[48]
  No. resp animals / Total: 3 / 7
[49]
  Rate response: 33.5 min⁻¹
[50]
  No. resp animals / Total: 7 / 7

## CN1C2CCC1[C@@H](/C=C/Cl)[C@@H](c1ccc(Cl)cc1)C2 (stereo partly specified)
[51]
  IC50: 0.7 nM
[2]
  IC50: 1.3 nM
